The supplement of paper PMC10307832

Legend:
Test in all cases: relative viability (nuclei count vs DMSO), 5 days (fraction); higher = more cells survive
Alpelisib + Olaparib = compound: Cc1nc(NC(=O)N2CCC[C@H]2C(N)=O)sc1-c1ccnc(C(C)(C)C(F)(F)F)c1 [Alpelisib] + O=C(c1cc(Cc2n[nH]c(=O)c3ccccc23)ccc1F)N1CCN(C(=O)C2CC2)CC1 [Olaparib] (partner 8 µM)
In short: (§1)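 Values are medians from duplicate plates. Each reflects relative viability, defined as the nuclei count of treated wells over that of vehicle wells. Lung cancer cell lines in 1536-well plates were pin-tool dosed one day after seeding with one drug alone or with a fixed anchor-drug dose plus five library-drug doses (not always all listed) in √10 steps, then fixed, stained and imaged at 4× after 5 days.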

Alpelisib + Pemetrexed = compound: Cc1nc(NC(=O)N2CCC[C@H]2C(N)=O)sc1-c1ccnc(C(C)(C)C(F)(F)F)c1 [Alpelisib] + Nc1nc2[nH]cc(CCc3ccc(C(=O)N[C@@H](CCC(=O)O)C(=O)O)cc3)c2c(=O)[nH]1 [Pemetrexed] (partner 0.2 µM)
In short: as §1

Alpelisib + Crizotinib = compound: Cc1nc(NC(=O)N2CCC[C@H]2C(N)=O)sc1-c1ccnc(C(C)(C)C(F)(F)F)c1 [Alpelisib] + C[C@@H](Oc1cc(-c2cnn(C3CCNCC3)c2)cnc1N)c1c(Cl)ccc(F)c1Cl [Crizotinib] (partner 1 µM)
In short: as §1

Alpelisib + Pictilisib = compound: Cc1nc(NC(=O)N2CCC[C@H]2C(N)=O)sc1-c1ccnc(C(C)(C)C(F)(F)F)c1 [Alpelisib] + CS(=O)(=O)N1CCN(Cc2cc3nc(-c4cccc5[nH]ncc45)nc(N4CCOCC4)c3s2)CC1 [Pictilisib] (partner 1 µM)
In short: as §1

| Cell Line | relative viability (Alpelisib + Olaparib; first compound 0.04 µM) | relative viability (Alpelisib + Olaparib; first compound 0.1265 µM) | relative viability (Alpelisib + Olaparib; first compound 0.4 µM) | relative viability (Alpelisib + Olaparib; first compound 1.265 µM) | relative viability (Alpelisib + Olaparib; first compound 4 µM) | relative viability (Alpelisib + Pemetrexed; first compound 0.04 µM) | relative viability (Alpelisib + Pemetrexed; first compound 0.1265 µM) | relative viability (Alpelisib + Pemetrexed; first compound 0.4 µM) | relative viability (Alpelisib + Pemetrexed; first compound 1.265 µM) | relative viability (Alpelisib + Pemetrexed; first compound 4 µM) | relative viability (Alpelisib + Crizotinib; first compound 0.04 µM) | relative viability (Alpelisib + Crizotinib; first compound 0.1265 µM) | relative viability (Alpelisib + Crizotinib; first compound 0.4 µM) | relative viability (Alpelisib + Crizotinib; first compound 1.265 µM) | relative viability (Alpelisib + Crizotinib; first compound 4 µM) | relative viability (Alpelisib + Pictilisib; first compound 0.04 µM) | relative viability (Alpelisib + Pictilisib; first compound 0.1265 µM) | relative viability (Alpelisib + Pictilisib; first compound 0.4 µM) | relative viability (Alpelisib + Pictilisib; first compound 1.265 µM) | relative viability (Alpelisib + Pictilisib; first compound 4 µM) |
| --- | --- | --- | --- | --- | --- | --- | --- | --- | --- | --- | --- | --- | --- | --- | --- | --- | --- | --- | --- | --- |
| COR-L23 | 0.327 | 0.338 | 0.573 | 0.294 | 0.253 | 0.188 | 0.184 | 0.215 | 0.2 | 0.196 | 0.622 | 0.613 | 0.698 | 0.478 | 0.459 | 0.744 | 0.79 | 0.865 | 0.594 | 0.636 |
| NCI-H23 | 0.254 | 0.269 | 0.321 | 0.232 | 0.289 | 0.78 | 0.622 | 0.726 | 0.602 | 0.416 | 0.565 | 0.497 | 0.425 | 0.428 | 0.432 | 0.605 | 0.493 | 0.528 | 0.419 | 0.464 |
| NCI-H441 | 0.549 | 0.478 | 0.733 | 0.46 | 0.236 | 0.273 | 0.269 | 0.28 | 0.264 | 0.272 | 0.743 | 0.567 | 0.746 | 0.432 | 0.435 | 0.438 | 0.448 | 0.547 | 0.382 | 0.41 |
| NCI-H1650 | 0.878 | 0.786 | 0.932 | 0.523 | 0.622 | 0.434 | 0.354 | 0.337 | 0.335 | 0.353 | 1.01 | 0.941 | 1.02 | 0.847 | 0.956 | 0.625 | 0.488 | 0.631 | 0.595 | 0.494 |
| NCI-H1734 | 0.584 | 0.328 | 0.61 | 0.425 | 0.35 | 0.407 | 0.406 | 0.394 | 0.406 | 0.399 | 0.633 | 0.605 | 0.715 | 0.506 | 0.382 | 0.472 | 0.427 | 0.494 | 0.397 | 0.343 |
| HCC-366 | 0.338 | 0.287 | 0.374 | 0.217 | 0.16 | 0.175 | 0.232 | 0.296 | 0.342 | 0.254 | 0.488 | 0.459 | 0.585 | 0.215 | 0.0795 | 0.151 | 0.137 | 0.196 | 0.11 | 0.222 |
| LXF-289 | 1.04 | 1.04 | 1.12 | 0.997 | 0.942 | 0.899 | 0.866 | 0.999 | 0.904 | 0.949 | 0.798 | 0.792 | 0.875 | 0.84 | 0.778 | 0.762 | 0.805 | 0.855 | 0.707 | 0.733 |
| ChaGo-K-1 | 0.435 | 0.42 | 0.426 | 0.417 | 0.342 | 0.265 | 0.257 | 0.263 | 0.263 | 0.251 | 1.13 | – | 1.15 | 0.988 | 0.841 | 0.714 | – | 0.883 | 0.625 | 0.492 |
| NCI-H838 | 0.774 | 0.754 | 0.744 | 0.637 | 0.613 | 0.257 | 0.238 | 0.244 | 0.229 | 0.199 | 0.774 | 0.768 | 0.932 | 0.73 | 0.772 | 0.439 | 0.471 | 0.427 | 0.47 | 0.434 |
| NCI-H1993 | 1.01 | 0.868 | 1.13 | 0.585 | 0.735 | 0.606 | 0.544 | 0.571 | 0.545 | 0.432 | 0.817 | 0.845 | 0.799 | 0.603 | 0.604 | 0.825 | 0.803 | 0.767 | 0.696 | 0.918 |
| NCI-H1437 | 0.64 | 0.684 | 0.679 | 0.627 | 0.644 | 0.3 | 0.31 | 0.274 | 0.252 | 0.213 | 0.904 | 0.919 | 1 | 0.906 | 0.942 | 0.416 | 0.482 | 0.441 | 0.37 | 0.335 |
| NCI-H647 | 0.534 | 0.485 | 0.569 | 0.487 | 0.436 | 0.182 | 0.168 | 0.193 | 0.161 | 0.155 | 1.03 | 1.08 | 1.11 | 0.933 | 0.913 | 0.446 | 0.385 | 0.402 | 0.294 | 0.378 |
| HCC-78 | 0.694 | 0.825 | 0.857 | 0.44 | 0.521 | 0.854 | 0.941 | 0.951 | 0.854 | 0.887 | 0.289 | 0.294 | 0.318 | 0.234 | 0.242 | 0.21 | 0.187 | 0.218 | 0.222 | 0.228 |
